Measured values from ChEMBL document CHEMBL1159277, “Sesquiterpene/quinol from a New Zealand liverwort, Riccardia crassa” (J Nat Prod, 1995).
Activity calls are given as the source filed them. The rule behind the calls is not given here.

What was measured:
Candida albicans = assay: Antifungal activity against Candida albicans at 60 ug/disk; assay type: functional, organism-based
[1] = system: Trichophyton mentagrophytes; assay: Antifungal activity against Trichophyton mentagrophytes at 60 ug/disk; assay type: functional, organism-based
P388 = assay: Cytotoxicity against mouse P388 cells; assay type: functional, cell-based

CC(C)=C/C=C/[C@@]1(C)CCC[C@]2(C)Oc3ccc(O)cc3C[C@@H]12 [RICCARDIPHENOL C]
Activity (Candida albicans): inactive
Activity [1]: inactive
IC50 (P388): > 25 µg/mL
